In patent US4588720A, “Imidazo[1,2-a]pyrimidines” (Roussel Uclaf, priority 1982, dated 1986):

How the values were obtained:
[1] = target: benzodiazepine receptors; experiment: Affinity for benzodiazepine receptors ([3H] flunitrazepam radioreceptor binding); details: inhibition of specific binding of 0.6 nM [^3 H] flunitrazepam, rat forebrain membrane preparations; read-out: Receptor Binding (IC50 nM)
Method: A. Affinity for benzodiazepine receptors
The affinity of the compounds for benzodiazepine receptors was assessed using the radioligand [^3 H] flunitrazepam and modifications of the original radioreceptor binding method of Squares and Braestrup (Nature, Vol. 266 (1977) p. 732). The values given in Table VI are nanomolar concentrations of test compound which inhibited the specific binding of 0.6 nM[^3 H] flunitrazepam to rat forebrain membrain preparations by 50% (IC50 nM).

[2] = Anxiolytic activity, Geller conflict method (Geller and Seifter); assay type: in vivo; details: po; modified Geller and Seifter conflict method; read-out: Geller Conflict (MED mg/kg po), minimum effective dose at which there was an observed increase in shocks above control
Method: Screening for anxiolytic activity was carried out by modifications of the conflict method of Geller and Seifter (Psychopharmacologia, (1960), Volume I, p. 482). The values given in Table VI are the minimum effective doses at which there was an observed increase in shocks above control (MED me/kg po).

| SMILES | IC50 [1] [nM] | minimal effective dose [2] [mg/kg] |
| --- | --- | --- |
| C=CCc1c(OC)nc2nc(C(=O)c3ccccc3)cn2c1CCC [Example 37, [6-Allyl-7-methoxy-5-n-propylimidazo[1,2-a]pyrimidin-2-yl]phenylmethanone] | 135 | 50 |
| CCc1cn2cc(C(=O)c3ccccc3)nc2nc1OC [Example 38, [6-Ethyl-7-methoxyimidazo[1,2-a]pyrimidin-2-yl]phenylmethanone] | 1500 | 5 |
| CCCCc1c(C)c(OC)nc2nc(C(=O)c3ccccc3)cn12 [Example 39, [5-n-Butyl-7-methoxy-6-methylimidazo[1,2-a]pyrimidin-2-yl]phenylmethanone] | 400 | 50 |
| CCCc1cn2cc(C(=O)c3ccccc3)nc2nc1OC [Example 40, [7-Methoxy-6-n-propylimidazo[1,2-a]pyrimidin-2-yl]phenylmethanone] | 1900 | 50 |
| CCCCc1cn2cc(C(=O)c3ccccc3)nc2nc1OC [Example 41, [6-n-Butyl-7-methoxyimidazo[1,2-a]pyrimidin-2-yl]phenylmethanone] | 300 | 50 |
| COc1nc2nc(C(=O)c3ccccc3)cn2cc1C [Example 42, [7-Methoxy-6-methylimidazo[1,2-a]pyrimidin-2-yl]phenylmethanone] | 5900 | 50 |
| CCCCc1cc(OC)nc2nc(C(=O)c3ccccc3)cn12 [Example 43, [5-n-Butyl-7-methoxyimidazo[1,2-a]pyrimidin-2-yl]phenylmethanone] | 340 | 10 |
| C=CCc1c(OC)nc2nc(C(=O)c3ccccc3)cn2c1CC [Example 44, [6-Allyl-5-ethyl-7-methoxyimidazo[1,2-a]pyrimidin-2-yl]phenylmethanone] | 42 | 10 |
| CCCCc1c(CC)c(OC)nc2nc(C(=O)c3ccccc3)cn12 [Example 45, [5-n-Butyl-6-ethyl-7-methoxyimidazo[1,2-a]pyrimidin-2-yl]phenylmethanone] | 500 | 50 |
| CCCCc1c(CCC)c(OC)nc2nc(C(=O)c3ccccc3)cn12 [Example 46, [5-n-Butyl-7-methoxy-6-n-propylimidazo[1,2-a]pyrimidin-2-yl]phenylmethanone] | 1200 | 20 |
| CCCCCc1c(OC)nc2nc(C(=O)c3ccccc3)cn2c1C [Example 47, [7-Methoxy-5-methyl-6-n-pentylimidazo[1,2-a]pyrimidin-2-yl]phenylmethanone] | 107 | 20 |
| COc1nc2nc(C(=O)c3ccccc3)cn2c(C)c1CC(C)C [Example 48, [6-iso-Butyl-7-methoxy-5-methylimidazo[1,2-a]pyrimidin-2-yl]phenylmethanone] | 400 | 20 |
| CCc1c(SC)nc2nc(C(=O)c3ccccc3)cn2c1C [Example 49, [6-ethyl-5-methyl-7-(methylthio)imidazo[1,2-a]pyrimidin-2-yl]phenylmethanone] | 12 | 2 |
| CCc1c(OC)nc2nc(C(=O)c3ccc(OC)cc3)cn2c1C [Example 54, (6-Ethyl-7-methoxy-5-methylimidazo[1,2-a]pyrimidin-2-yl)(4-methoxyphenyl)methanone] | 59 | 10 |
| CCc1c(OC)nc2nc(C(=O)c3ccc(Cl)cc3)cn2c1C [Example 55, (6-ethyl 7-methoxy 5-methylimidazo/1,2-a/pyrimidin-2-yl)(4-chlorophenyl)methanone] | 85 | 50 |
| CCc1c(OC)nc2nc(C(=O)c3ccc(C)cc3)cn2c1C [Example 56, (6-ethyl 7-methoxy 5-methylimidazo/1,2-a/pyrimidin-2-yl)(4-methylphenyl)methanone] | 68 | 50 |
| CCc1c(OC)nc2nc(C(=O)c3ccccc3Cl)cn2c1C [Example 57, (6-ethyl 7-methoxy 5-methylimidazo/1,2-a/pyrimidin-2-yl)(2-chlorophenyl)methanone] | 100 | 50 |
| CCc1c(OC)nc2nc(C(=O)c3cccc(OC)c3)cn2c1C [Example 58, (6-ethyl 7-methoxy 5-methylimidazo/1,2-a/pyrimidin-2-yl)(3-methoxyphenyl)methanone] | 500 | 50 |
| CCc1c(OC)nc2nc(C(=O)c3ccc(SC)cc3)cn2c1C [Example 59, (6-ethyl 7-methoxy 5-methylimidazo/1,2-a/pyrimidin-2-yl)(4-methylthiophenyl)methanone] | 300 | 50 |
